System: C57BL/6 mice, liver irradiation
Test: Liver irradiation: serum AST and ALT activities (Examples 5-7)
Assay type: in vivo
Description: FIG. 8. Effect of UTL compounds on AST and ALT with and without radiation C57BL/6 male mice were treated with UTL-5b, -5d, and -5g each in 0.3 mL vehicle containing DMSO/(Cremophor:propylene glycol 4:6 v/v)/saline, 5/5/90 v/v by i.p. injection (30 mg/kg) 1 hr prior to liver irradiation with 15 Gy. Serum was obtained at 2 hr after irradiation and assayed for AST and ALT activities. Data are means±standard deviation (S.D.) * indicates p<0.05, n=4.
Mice were treated with various doses of UTL-5g (3.75, 7.5, 15, 30, and 60 mg/kg, i.p.) 1 hr prior to liver radiation with 15 Gy. Serum was obtained at 2 hr after irradiation and assayed for AST (4a) and ALT activities (4b).
FIG. 11. Radiation dose escalation and radioprotection by UTL-5 g Mice were pre-treated with UTL-5g (60mg/kg, i.p.) at 1 hr prior to radiation dose escalation (0, 5, 15, and 25 Gy). Serum was harvested at 2 hr after injections and was subjected to AST/ALT measurements as described in Methods. Results were compared to control mice received control vehicle. Data are means±standard deviation (* p<0.05, 2-tailed paired t-Test comparing treated and untreated groups, n=4).
In a preliminary study, three UTL compounds (5b, 5d and 5g) were examined for their radioprotective effect in C57BL/6 mice. One hr prior to liver irradiation (15 Gy), animals were treated with the test compounds by i.p. injection (30 mg/kg). Two hr later, the animals were sacrificed and serum AST and ALT enzyme activities were determined.
During the preliminary study, it was found unexpectedly that the vehicle used, DMSO/(Cremophor:propylene glycol […])/saline 5:5:90 v/v was associated with some liver toxicity as indicated by the moderate increase of serum AST and ALT activities in animals treated with vehicle alone.
Based on the preliminary studies, UTL-5g was selected for dose-dependent radioprotective studies. In this study, animals were treated with increasing doses of UTL-5g (from 0 to 60 mg/kg) one hr prior to liver irradiation (15 Gy). Two hr after irradiation, animals were sacrificed and serum AST/ALT enzyme activities and liver TNF-α levels were determined. […] For animals pre-treated with UTL-5g at 30 mg/kg, AST/ALT activity levels were lowered from 135/29 to 89/22 Unit/L, and those pre-treated with UTL-5g at 60 mg/kg, AST/ALT levels were reduced from 135/29 to 74/19 Unit/L, respectively.
Next, we investigated the radioprotective effect of UTL-5g with increased irradiation doses. In this study, animals were pre-treated with UTL-5g at 60 mg/kg and randomly divided into 4 groups. One hr later, they were subjected to liver irradiation at 0, 5, 15 and 25 Gy. Consistent with the previous study, pretreatment with UTL-5 g at 60 mg/kg was radioprotective against 15 Gy as evidenced by the reduction of serum AST activity (103.0 vs. 159.8 Unit/L in UTL-5g and in control vehicle groups, respectively) and ALT activity (17.8 vs. 32.3 Unit/L in UTL-5g and in control vehicle groups respectively) (FIG. 11).

Cc1cc(C(=O)Nc2ccc(Cl)cc2Cl)no1 [UTL-5g]
serum AST and ALT levels induced by irradiation (30 mg/kg i.p. 1 hr prior to liver irradiation 15 Gy, serum 2 hr after, C57BL/6 mice, preliminary study): the most effective in lowering both AST and ALT enzyme activities | serum AST/ALT activities, dose dependence (UTL-5g 0 to 60 mg/kg i.p. 1 hr before liver irradiation 15 Gy, serum 2 hr after): significantly reduced serum AST/ALT activities in a drug dose-dependent manner | serum ALT activity (UTL-5g 30 mg/kg 1 hr before 15 Gy, irradiated vehicle 29 (Example 6)): 22 Unit/L | serum AST activity (UTL-5g 30 mg/kg 1 hr before 15 Gy, irradiated vehicle 135 (Example 6)): 89 Unit/L | AST and ALT levels (UTL-5g 60 mg/kg 1 hr before 5 Gy): slightly but not significantly changed | serum ALT activity (UTL-5g 60 mg/kg 1 hr before 15 Gy, control vehicle 32.3 (Example 7)): 17.8 Unit/L | serum AST activity (UTL-5g 60 mg/kg 1 hr before 15 Gy, control vehicle 159.8 (Example 7)): 103.0 Unit/L | serum ALT activity (UTL-5g 60 mg/kg 1 hr before 15 Gy, irradiated vehicle 29 (Example 6)): 19 Unit/L | serum AST activity (UTL-5g 60 mg/kg 1 hr before 15 Gy, irradiated vehicle 135 (Example 6)): 74 Unit/L | radioprotection (AST/ALT) (UTL-5g 60 mg/kg 1 hr before 25 Gy): only moderate protection | AST and ALT enzyme activities without irradiation (UTL-5g 60 mg/kg alone, animals without irradiation): slightly increased

Source: US20120082736A1, “Small-molecule TNF modulator to reduce the side effects of chemotherapy and radiotherapy” (GeneBlue Corporation, priority 2010, published 2012)
